Measurements reported in patent US20260152487A1 (Sitryx Therapeutics Limited, priority 2021, published 2026).

Target: T1, recombinant human PKM2 (Homo sapiens, UniProt P14618)
T1 construct: His (N); purchased R&D Systems
Assay: Human PKM2 activation assay (Kinase-Glo Plus luminescent detection of generated ATP)
Assay type: biochemical
Details: for Emax: percentage activation normalised to DMSO vehicle (LOW) and 5 μM TEPP-46 (HIGH), read-out: hPKM2 Emax; for EC50: recombinant human PKM2 activation, 4-parameter logistic fit, read-out: hPKM2 EC50
Description: Compound activation of recombinant human PKM2 pyruvate kinase activity was determined by biochemical assay. N-terminal His-tagged hPKM2 was sourced from R&D Systems and its substrates phosphoenolpyruvate (PEP) and ADP from Sigma-Aldrich and 2Bscientific Ltd, respectively. The Kinase-Glo® Plus luminescence assay was from Promega. All other reagents were from Sigma-Aldrich. Test Compounds were prepared as 10 mM DMSO stocks and dilution series prepared in DMSO for direct dilution into Assay Buffer comprising 50 mM imidazole, 50 mM KCl, 7 mM MgCl2, 0.01% Tween20, 0.05% BSA (pH 7.2).
Human PKM2 was diluted into Assay Buffer comprising 50 mM imidazole, 50 mM KCl, 7 mM MgCl2, 0.01% Tween20, 0.05% BSA (pH 7.2) to a final concentration of […]. Enzyme-Assay Buffer mix was dispensed into a 384-well shallow-well white-walled plate (PerkinElmer) and Test Compounds added by acoustic dispense (Echo®, Labcyte Inc.).
After 60 minutes' incubation on an orbital shaker (300 rpm, 26° C.), enzyme activity was quantified by the luminescent detection of generated ATP. Kinase-Glo® Plus reagent was added to each well and the plates incubated for a further 15 minutes on an orbital shaker in the dark (300 rpm, 26° C.) before luminescence measurement on a plate reader (PHERAstar® FSX, BMG Labtech).
Percentage activation was calculated by normalising […] signals to plate LOW (DMSO vehicle) and HIGH (5 μM TEPP-46) controls. EC50 and Emax values were determined from 4-parameter logistic fits of compound concentration-response curves.

T1 sequence (P14618 2-531 limits assumed): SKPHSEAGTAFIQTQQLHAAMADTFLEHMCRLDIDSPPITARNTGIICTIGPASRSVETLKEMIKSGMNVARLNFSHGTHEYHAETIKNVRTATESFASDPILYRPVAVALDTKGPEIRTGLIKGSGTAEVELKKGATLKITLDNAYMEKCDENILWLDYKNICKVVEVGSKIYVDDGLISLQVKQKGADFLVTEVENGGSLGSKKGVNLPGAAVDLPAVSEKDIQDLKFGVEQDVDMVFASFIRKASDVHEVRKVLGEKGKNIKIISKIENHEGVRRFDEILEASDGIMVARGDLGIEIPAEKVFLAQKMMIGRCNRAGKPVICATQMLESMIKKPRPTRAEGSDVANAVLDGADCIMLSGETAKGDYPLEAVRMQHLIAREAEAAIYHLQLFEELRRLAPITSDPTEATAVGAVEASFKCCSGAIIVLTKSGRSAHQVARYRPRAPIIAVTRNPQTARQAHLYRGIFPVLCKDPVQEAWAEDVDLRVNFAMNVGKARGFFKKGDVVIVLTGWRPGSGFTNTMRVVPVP

Emax | EC50 | SMILES
94.6% | 204 nM | Cn1ccc(Cn2ncc3cc(S(=O)(=O)c4cnn(CCO)c4)ccc3c2=O)n1 [Example 264, 6-((1-(2-hydroxyethyl)-1H-pyrazol-4-yl)sulfonyl)-2-((1-methyl-1H-pyrazol-3-yl)methyl)phthalazin-1(2H)-one]
93.2% | 799 nM | Cc1cc(Cn2ncc3cc(S(=O)(=O)c4ccccc4)ccc3c2=O)no1 [Example 80, 2-((5-methylisoxazol-3-yl)methyl)-6-(phenylsulfonyl)phthalazin-1(2H)-one]
109% | 155 nM | Cc1cccc(Cn2ncc3cc(S(=O)(=O)c4csc(C(C)O)n4)ccc3c2=O)n1 (centres unmarked) [Example 282, 6-((2-(1-hydroxyethyl)thiazol-4-yl)sulfonyl)-2-((6-methylpyridin-2-yl)methyl)phthalazin-1(2H)-one]
111% | 151 nM | COc1ccc(Cn2ncc3cc(S(=O)(=O)c4cc[nH]n4)ccc3c2=O)nc1 [Example 325]
66% | 739 nM | COc1ccc(Cn2ncc3cc(S(=O)(=O)c4cn(C)c(C)n4)ccc3c2=O)cn1 [Example 185, 6-(1,2-dimethyl-1H-imidazol-4-ylsulfonyl)-2-((6-methoxypyridin-3-yl)methyl)phthalazin-1(2H)-one]
89.9% | 554 nM | NC(=O)c1c(Cl)cccc1Cn1ncc2cc(S(=O)(=O)c3ccccc3)ccc2c1=O [Example 91, 2-chloro-6-((1-oxo-6-(phenylsulfonyl)phthalazin-2(1H)-yl)methyl)benzamide]
101% | 39.4 nM | Cc1c(Cn2ncc3cc(S(=O)(=O)c4cnn(C)c4)ccc3c2=O)nn2c1OCC2 [Example 355]
115% | 60.2 nM | C[C@@H]1Cc2cc(S(=O)(=O)c3ccc4c(=O)n(Cc5ccn(C)n5)ncc4c3)ccc2O1 [Example 217, (R)-2-((1-methyl-1H-pyrazol-3-yl)methyl)-6-((2-methyl-2,3-dihydrobenzofuran-5-yl)sulfonyl)phthalazin-1(2H)-one]
107% | 146 nM | COc1ccc(Cn2ncc3cc(S(=O)(=O)c4ccccc4OC)ccc3c2=O)cn1 [Example 164, 6-(2-methoxyphenylsulfonyl)-2-((6-methoxypyridin-3-yl)methyl)phthalazin-1(2H)-one]
105% | 304 nM | Cc1cccc(Cn2ncc3cc(S(=O)(=O)c4cnn(CCN)c4)ccc3c2=O)n1 [Example 277, 6-((1-(2-aminoethyl)-1H-pyrazol-4-yl)sulfonyl)-2-((6-methylpyridin-2-yl)methyl)phthalazin-1(2H)-one]
79.9% | 111 nM | COc1ccc(Cn2ncc3cc([S@](=N)(=O)c4ccc(OC(F)F)cc4)ccc3c2=O)cn1 (single isomer, unassigned) [Example 135]
98.1% | 530 nM | Cn1ccc(Cn2ncc3cc([S+]([O-])c4ccccc4)ncc3c2=O)n1 (centres unmarked) [Example 249, 3-((1-methyl-1H-pyrazol-3-yl)methyl)-7-(phenylsulfinyl)pyrido[3,4-d]pyridazin-4(3H)-one]
80.7% | 582 nM | O=c1c2ccc(S(=O)(=O)c3ccn(CCO)n3)cc2cnn1Cc1cccnc1O [Example 237, 6-(1-(2-hydroxyethyl)-1H-pyrazol-3-ylsulfonyl)-2-((2-hydroxypyridin-3-yl)methyl)phthalazin-1(2H)-one]
92.2% | 765 nM | NC(=O)c1ccc(Cn2ncc3cc(S(=O)(=O)c4ccccc4)ccc3c2=O)o1 [Example 86, 5-((1-oxo-6-(phenylsulfonyl)phthalazin-2(1H)-yl)methyl)furan −2-carboxamide]
89.7% | 56.1 nM | COc1ccc(Cn2ncc3cc(S(=O)(=O)c4ccn(C(F)F)n4)ccc3c2=O)cn1 [Example 179, 6-(1-(difluoromethyl)-1H-pyrazol-3-ylsulfonyl)-2-((6-methoxypyridin-3-yl)methyl)phthalazin-1(2H)-one]
93.4% | 25.2 nM | Cn1ccc(Cn2ncc3cc(S(=O)(=O)c4ccc5c(c4)OCCO5)ccc3c2=O)n1 [Example 215, 6-((2,3-dihydrobenzo[b][1,4]dioxin-6-yl)sulfonyl)-2-((1-methyl-1H-pyrazol-3-yl)methyl)phthalazin-1(2H)-one]
119% | 131 nM | Cc1ccc(F)c(Cn2ncc3cc(S(=O)(=O)c4cc[nH]n4)ccc3c2=O)n1 [Example 301]

Emax | EC50 | SMILES
91.8% | 319 nM | Cc1ccc(S(=O)(=O)c2ccc3c(=O)n(Cc4cc[nH]n4)ncc3c2)nc1 [Example 289, 2-((1H-pyrazol-3-yl)methyl)-6-((5-methylpyridin-2-yl)sulfonyl)phthalazin-1(2H)-one]
102% | 215 nM | Cc1cc(Cn2ncc3cc(S(=O)(=O)c4cnn(C)c4)ccc3c2=O)n[nH]1 [Example 312]
115% | 35.4 nM | O=c1c2ccc(S(=O)(=O)c3ccc4sccc4c3)cc2cnn1Cc1cc[nH]n1 [Example 227, 2-((1H-pyrazol-3-yl)methyl)-6-(benzo[b]thiophen-5-ylsulfonyl)phthalazin-1(2H)-one]
101% | 31.8 nM | COCCn1cc(S(=O)(=O)c2ccc3c(=O)n(Cc4ccc5c(n4)CCO5)ncc3c2)cn1 [Example 333]
126% | 198 nM | O=c1c2ccc(S(=O)(=O)c3ccccc3)cc2cnn1Cc1cc(C2CC2)[nH]n1 [Example 25, 2-((5-cyclopropyl-1H-pyrazol-3-yl)methyl)-6-(phenylsulfonyl)phthalazin-1(2H)-one]
106% | 23.3 nM | O=c1c2ccc(S(=O)(=O)c3cn[nH]c3)cc2cnn1Cc1ccc2c(n1)NCCO2 [Example 354]
109% | 169 nM | Cn1cc(S(=O)(=O)c2ccc3c(=O)n(Cc4cc(Cl)[nH]n4)ncc3c2)cn1 [Example 317]
96.8% | 23.3 nM | O=c1c2ccc(S(=O)(=O)c3cnn(C4COC4)c3)cc2cnn1Cc1ccc2c(n1)CCO2 [Example 334]
103% | 129 nM | Cc1cccc(Cn2ncc3cc(S(=O)(=O)c4cnn(CCO)c4)ccc3c2=O)n1 [Example 269]
124% | 243 nM | O=c1c2ccc(S(=O)(=O)c3ccccc3)cc2cnn1Cc1cc(F)[nH]n1 [Example 111, 2-((5-fluoro-1H-pyrazol-3-yl)methyl)-6-(phenylsulfonyl)phthalazin-1(2H)-one]
97.1% | 208 nM | Nc1cccc(Cn2ncc3cc(S(=O)(=O)c4cccc5cccnc45)ccc3c2=O)c1 [Example 114, 2-(3-aminobenzyl)-6-(quinolin-8-ylsulfonyl)phthalazin-1(2H)-one]
103% | 162 nM | O=c1c2ccc(S(=O)(=O)c3ccccc3)cc2cnn1Cc1ccn(C(F)F)n1 [Example 28, 2-((1-(difluoromethyl)-1H-pyrazol-3-yl)methyl)-6-(phenylsulfonyl)phthalazin-1(2H)-one]
115% | 136 nM | O=c1c2ccc(S(=O)(=O)c3ccc4ccoc4c3)cc2cnn1Cc1cc[nH]n1 [Example 222, 2-((1H-pyrazol-3-yl)methyl)-6-(benzofuran-6-ylsulfonyl)phthalazin-1(2H)-one]
106% | 174 nM | COc1ccc(F)c(Cn2ncc3cc(S(=O)(=O)c4cn[nH]c4)ccc3c2=O)n1 [Example 326]
85.4% | 186 nM | COc1ccc(Cn2ncc3cc(S(=O)(=O)c4ccn(C)n4)ccc3c2=O)cn1 [Example 158, 2-((6-methoxypyridin-3-yl)methyl)-6-((1-methyl-1H-pyrazol-3-yl)sulfonyl)phthalazin-1(2H)-one]
94.7% | 44.9 nM | O=c1c2ccc(S(=O)(=O)c3ccc4c(n3)OCCO4)cc2cnn1Cc1cc[nH]n1 [Example 229, 2-((1H-pyrazol-3-yl)methyl)-6-((2,3-dihydro-[1,4]dioxino[2,3-b]pyridin-6-yl)sulfonyl)phthalazin-1(2H)-one]
92.3% | 191 nM | Cn1cc(S(=O)(=O)c2cc3cnn(Cc4cc[nH]n4)c(=O)c3cn2)cn1 [Example 266, 3-((1H-pyrazol-3-yl)methyl)-7-((1-methyl-1H-pyrazol-4-yl)sulfonyl)pyrido[3,4-d]pyridazin-4(3H)-one]

SMILES | Emax | EC50
COc1ccc(Cn2ncc3cc(S(=O)(=O)Nc4ccccc4)ccc3c2=O)cn1 [Example 122, 2-((6-methoxypyridin-3-yl)methyl)-1-oxo-N-phenyl-1,2-dihydrophthalazine-6-sulfonamide] | 60% | 590 nM
Cc1cn(CCO)nc1Cn1ncc2cc(S(=O)(=O)c3ccccc3)ccc2c1=O [Example 16, 2-((1-(2-hydroxyethyl)-4-methyl-1H-pyrazol-3-yl)methyl)-6-(phenylsulfonyl)phthalazin-1(2H)-one] | 92.6% | 154 nM
COc1ccc(Cn2ncc3cc(S(=O)(=O)c4cc[nH]n4)ccc3c2=O)cn1 [Example 140, 6-((1H-pyrazol-3-yl)sulfonyl)-2-((6-methoxypyridin-3-yl)methyl)phthalazin-1(2H)-one] | 107% | 192 nM
